Series [1] in a line: In Vitro Microsome Stability Assay (mouse). The series is classed as in vitro ADME. The gist of the method:
(§1)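 The value reported is the percentage of parent left after 30 min, calculated from analyte/IS peak-area ratios relative to time zero by LC-MS/MS. Incubations ran at 37° C in 0.1 M potassium phosphate with NADPH and microsomes (stock 20 mg/mL), with compound added from a 0.25 mM DMSO stock. Acetonitrile containing IS stopped the reactions.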

Series [2] can be described thus: In Vitro Microsome Stability Assay (human). The series is classed as in vitro ADME. To be noted: human liver microsomes, 30 min w/ NADPH. The gist of the method: as §1
Series [3] concerns full length IL-2 (amino acids 1-153) fused to Gaussia Luciferase. As to the kind of experiment: Dox Induced IL2-FL-Gluc Assay. The series is classed as cell-based. Conditions: 24 hr, read-out: 24 hr Dox Inducible IL2FLGluc 293FRT/TO: Mean IC50. An excerpt:
FIp-In 293 T-REx™ cells were transfected with pcDNA™5/FRT/TO plasmid inserted with cDNA encoding Gaussia Luciferase fused to the 3′ end of cDNA encoding full length IL-2 (amino acids 1-153). Transfected cells were selected for resistance to the selectable markers Hygromycin and Blasticidin to create a stable cell line that contained the IL-2-FL/Gaussia Luciferase cDNA insert whose expression was regulated under the T-REx™ system. The day before assay, cells were trypsinized and plated in 384-well tissue culture plates. The next day, compound dilutions in DMSO/media containing doxycycline were added to the wells and incubated at 37° C., 5% CO2.
For chemical structures that include one or more stereoisomers, but are illustrated without indicating stereochemistry, the assay data refers to a mixture of stereoisomers.

The test system of series [4] is PD1 signal sequence plus 10 amino acids fused to Gaussia Luciferase (PD1-ss+10aa/Gaussia Luciferase). Nature of the series: Dox Induced PD1-ss-Gluc Assay. To be noted: 24 hr, read-out: 24 hr Dox Inducible PD1ssGluc 293FRT/TO: Mean IC50. The series is classed as cell-based. The essentials:
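Compound dilutions in DMSO/media containing doxycycline were applied to a stable, inducible 293 T-REx line carrying the luciferase fusion, then incubated at 37 °C, 5% CO2. Where stereochemistry is not drawn, values relate to isomer mixtures.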

Series [5] concerns full length TNFα (amino acids 1-233) fused to Gaussia Luciferase. As to the kind of experiment: Dox Induced TNFα-FL-Gluc Assay. The series is classed as cell-based. To be noted: 24 hr, read-out: 24 hr Dox Inducible TNFaFLGluc 293FRT/TO: Mean IC50. The gist of the method:
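Compounds diluted in DMSO/medium with doxycycline were incubated at 37° C, 5% CO2 with 293 T-REx cells stably carrying a Tet-regulated TNFα(1-233)-Gaussia luciferase construct. Data for structures drawn without stereochemistry refer to stereoisomer mixtures.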

A short description of series [6]: In Vitro Microsome Stability Assay (monkey). The series is classed as in vitro ADME. To be noted: monkey liver microsomes, 30 min w/ NADPH. The gist of the method:
as §1
On the technique in general: Liver microsomes are vesicles of endoplasmic reticulum, rich in cytochrome P450 enzymes.

Series [7] concerns multiple myeloma cell line U266B1. As to the kind of experiment: U266 Cell Viability Assay. Conditions: Homo sapiens, U-266, 48 hr. The series is classed as cell-based, human. The gist of the method: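 Viability was measured by CellTiter-Glo luminescence after 48 h compound exposure at 37° C, 5% CO2. The cells were U266B1 multiple myeloma cells grown in RPMI 1640 plus 10% FBS. Where stereochemistry is not shown, values apply to the stereoisomer mixture.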

A short description of series [8]: In Vitro Microsome Stability Assay (rat). The series is classed as in vitro ADME. The gist of the method: as §1
The test system of series [9] is multiple myeloma cell line NCl-H929. Nature of the series: H929 Cell Viability Assay. The series is classed as cell-based, human. To be noted: Homo sapiens, NCI-H929, 48 h. The essentials: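 Viability was determined by CellTiter-Glo luminescence after a 48 h, 37 °C exposure of NCI-H929 cells to serial compound dilutions in medium containing 10% FBS. Where stereochemistry is not shown, values refer to a mix of stereoisomers.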

[10] abbreviates: mouse liver microsomes, 30 min w/ NADPH.
Where [11] appears, read: rat liver microsomes, 30 min w/ NADPH.

Where two headings read alike, the source gives them in different places.

Take `Cc1cccc(C)c1N1CCN(S(=O)(=O)N2CCCN(CC3CCCCC3)CCCN(S(=O)(=O)c3ccc(N(C)C)cc3)C[C@H](C)C2)CC1` [A119, 4-{[(3S)-9-(cyclohexylmethyl)-5-{[4-(2,6-dimethylphenyl)piperazin-1-yl]sulfonyl}-3-methyl-1,5,9-triazacyclododecan-1-yl]sulfonyl}-N,N-dimethylaniline]: in [1] (setting [10]), the “Liver Microsome Stability-% Left after 30 min w/ NADPH (%) Mouse” value (from here on “Liver Microsome Stability-% Left … (%) Mouse”) was 50.8%. In addition, the “Liver Microsome Stability-% Left after 30 min w/ NADPH (%) Human” value (“Liver Microsome Stability-% Left … (%) Human” below) in series [2] is reported as 71.7%. In addition, the IC50 in [3] (Dox inducible, 293FRT/TO cells) is 170 nM; in [4] (Dox inducible, 293FRT/TO cells), 52.3 nM; in series [5] (Dox inducible, 293FRT/TO cells), 1080 nM. In addition, in series [6], the “Liver Microsome Stability-% Left after 30 min w/ NADPH (%) Monkey” value (shortened to “Liver Microsome Stability-% Left … (%) Monkey”) is 53.9%. The EC50 (commonly the concentration giving half of the maximal effect) was above 25000 nM in series [7] (U266, Celltiter-Glo) and 7680 nM in series [9] (H929, Celltiter-Glo). Further, in series [8] (setting [11]), the “Liver Microsome Stability-% Left after 30 min w/ NADPH (%) Rat” value (from here on “Liver Microsome Stability-% Left … (%) Rat”) is reported as 66.1%.
`COc1ccccc1N1CCN(S(=O)(=O)N2CCCN(CC3CCCCC3)CCCN(S(=O)(=O)c3ccc(N(C)C)cc3)C[C@H](C)C2)CC1` [A154, 4-{[(3S)-9-(cyclohexylmethyl)-5-{[4-(2-methoxyphenyl)piperazin-1-yl]sulfonyl}-3-methyl-1,5,9-triazacyclododecan-1-yl]sulfonyl}-N,N-dimethylaniline]: the “Liver Microsome Stability-% Left … (%) Mouse” value in series [1] (setting [10]) is listed as 17.5%. The “Liver Microsome Stability-% Left … (%) Human” value in series [2] was determined as 7.33%. Moreover, the IC50 was 58.7 nM in [3] (Dox inducible, 293FRT/TO cells); 14.9 nM in [4] (Dox inducible, 293FRT/TO cells); 504 nM in [5] (Dox inducible, 293FRT/TO cells). Also, the “Liver Microsome Stability-% Left … (%) Monkey” value in [6] worked out at 10.2%. Further, the EC50 in series [7] (U266, Celltiter-Glo) was above 25000 nM; in [9] (H929, Celltiter-Glo), 749 nM. Also, the “Liver Microsome Stability-% Left … (%) Rat” value in series [8] (setting [11]) turned out to be 12.3%.
Consider `Cc1ccc(CN2CCCN(S(=O)(=O)c3ccc(N(C)C)cc3)C[C@H](C)CN(S(=O)(=O)N3CCc4cc(Cl)ccc4C3)CCC2)cc1` [A131, 4-{[(3S)-5-[(6-chloro-1,2,3,4-tetrahydroisoquinolin-2-yl)sulfonyl]-3-methyl-9-[(4-methylphenyl)methyl]-1,5,9-triazacyclododecan-1-yl]sulfonyl}-N,N-dimethylaniline], for which, in series [1] (setting [10]), the “Liver Microsome Stability-% Left … (%) Mouse” value worked out at 101%. Further, the “Liver Microsome Stability-% Left … (%) Human” value in series [2] turned out to be 84.5%. Besides, the IC50 in series [3] (Dox inducible, 293FRT/TO cells) came out at 426 nM; in series [4] (Dox inducible, 293FRT/TO cells), 145 nM; in [5] (Dox inducible, 293FRT/TO cells), 2400 nM. Moreover, the “Liver Microsome Stability-% Left … (%) Monkey” value in series [6] amounted to 70.2%. Moreover, the concentration giving a half-maximal response (EC50) is above 25000 nM in [7] (U266, Celltiter-Glo) and 4740 nM in series [9] (H929, Celltiter-Glo). Moreover, the “Liver Microsome Stability-% Left … (%) Rat” value in series [8] (setting [11]) was 73.9%.
On to `C[C@@H]1CCN(S(=O)(=O)c2ccc(N(C)C)cc2)CCCN(CC2CCCCC2)CCCN1S(=O)(=O)N1CCc2cc(Cl)ccc2C1` [A148, 4-{[(4 R)-5-[(6-chloro-1,2,3,4-tetrahydroisoquinolin-2-yl)sulfonyl]-9-(cyclohexylmethyl)-4-methyl-1,5,9-triazacyclododecan-1-yl]sulfonyl}-N,N-dimethylaniline], for which, in [1] (setting [10]), the “Liver Microsome Stability-% Left … (%) Mouse” value is 1.59%. In series [2], the “Liver Microsome Stability-% Left … (%) Human” value was 0.52%. For the same molecule, the IC50 in series [3] (Dox inducible, 293FRT/TO cells) is 1120 nM; in series [4] (Dox inducible, 293FRT/TO cells) it was 926 nM; in [5] (Dox inducible, 293FRT/TO cells), above 25000 nM. The “Liver Microsome Stability-% Left … (%) Monkey” value in [6] came out at 0.67%. Also, the EC50 is above 25000 nM in series [7] (U266, Celltiter-Glo) and above 25000 nM in series [9] (H929, Celltiter-Glo). The “Liver Microsome Stability-% Left … (%) Rat” value in [8] (setting [11]) worked out at 1.29%.
Take `Cc1ccc(N2CCN(S(=O)(=O)N3CCCN(CC4CCCCC4)CCCN(S(=O)(=O)c4ccc(N(C)C)cc4)C[C@H](C)C3)CC2)cc1` [A99, 4-{[(3S)-9-(cyclohexylmethyl)-3-methyl-5-{[4-(4-methylphenyl)piperazin-1-yl]sulfonyl}-1,5,9-triazacyclododecan-1-yl]sulfonyl}-N,N-dimethylaniline]: the “Liver Microsome Stability-% Left … (%) Mouse” value in [1] (mouse, 30 min, NADPH) amounted to 60.8%. Moreover, the “Liver Microsome Stability-% Left … (%) Human” value in series [2] was 41.9%. In addition, the IC50 in [3] (293FRT/TO) was found to be 350 nM; in series [4] (293FRT/TO), 116 nM; in series [5] (293FRT/TO), 3540 nM. For the same molecule, the “Liver Microsome Stability-% Left … (%) Monkey” value in series [6] worked out at 37%. The half-maximal effective concentration (EC50) in series [7] (U266, read-out: 48 hr U266 Viability Celltiter-Glo: Mean EC50) is above 25000 nM; in [9] (H929, read-out: 48 hr H929 Viability Celltiter-Glo: Mean EC50), above 25000 nM. The “Liver Microsome Stability-% Left … (%) Rat” value in [8] (rat, 30 min, NADPH) is 50.8%.
`Cc1cc(F)ccc1N1CC2(C1)CN(S(=O)(=O)N1CCCN(CC3CCCCC3)CCCN(S(=O)(=O)c3ccc(N(C)C)cc3)C[C@H](C)C1)C2` [A161, 4-{[(3S)-9-(cyclohexylmethyl)-5-{[6-(4-fluoro-2-methylphenyl)-2,6-diazaspiro[3.3]heptan-2-yl]sulfonyl}-3-methyl-1,5,9-triazacyclododecan-1-yl]sulfonyl}-N,N-dimethylaniline]: the “Liver Microsome Stability-% Left … (%) Mouse” value in series [1] (setting [10]) turned out to be 26.5%. The “Liver Microsome Stability-% Left … (%) Human” value in [2] is 20.2%. Moreover, the IC50 in [3] (Dox inducible, 293FRT/TO cells) was 726 nM; in series [4] (Dox inducible, 293FRT/TO cells), 577 nM; in [5] (Dox inducible, 293FRT/TO cells) it was above 25000 nM. Also, the “Liver Microsome Stability-% Left … (%) Monkey” value in [6] is given as 16.7%. Further, the concentration for a half-maximal effect (EC50) in series [7] (U266, Celltiter-Glo) is above 25000 nM; in [9] (H929, Celltiter-Glo), above 25000 nM. Further, in series [8] (setting [11]), the “Liver Microsome Stability-% Left … (%) Rat” value came to 27.3%.
Take `C[C@@H]1CN(CC2CCCCC2)C[C@H](C)CN(S(=O)(=O)c2ccc(N(C)C)cc2)C[C@H](C)CN(S(=O)(=O)N2CCc3cc(Cl)ccc3C2)C1` [B16, 4-{[(3S,7R,11S)-5-[(6-chloro-1,2,3,4-tetrahydroisoquinolin-2-yl]sulfonyl]-9-(cyclohexylmethyl)-3,7,11-trimethyl-1,5,9-triazacyclododecan-1-yl]sulfonyl}-N,N-dimethylaniline]: the “Liver Microsome Stability-% Left … (%) Mouse” value in [1] (setting [10]) is listed as 58.4%. Moreover, the “Liver Microsome Stability-% Left … (%) Human” value in [2] is listed as 55.2%. Besides, the IC50 in [3] (Dox inducible, 293FRT/TO cells) was found to be 826 nM; in [4] (Dox inducible, 293FRT/TO cells), 449 nM; in series [5] (Dox inducible, 293FRT/TO cells), 13900 nM. The “Liver Microsome Stability-% Left … (%) Monkey” value in series [6] was 44.7%. In addition, the half-maximal effective concentration (EC50) in series [7] (U266, Celltiter-Glo) is above 25000 nM; in [9] (H929, Celltiter-Glo), above 25000 nM. The “Liver Microsome Stability-% Left … (%) Rat” value in [8] (setting [11]) came to 72.3%.
`C[C@H]1CN(S(=O)(=O)c2ccc(N(C)C)cc2)CCCN(Cc2ncco2)CCCN(S(=O)(=O)N2CCc3cc(Cl)ccc3C2)C1` [A125, 4-{[(3S)-5-[(6-chloro-1,2,3,4-tetrahydroisoquinolin-2-yl)sulfonyl]-3-methyl-9-[(1,3-oxazol-2-yl)methyl]-1,5,9-triazacyclododecan-1-yl]sulfonyl}-N,N-dimethylaniline]: the “Liver Microsome Stability-% Left … (%) Mouse” value in series [1] (setting [10]) is on record as 0.14%. Further, the “Liver Microsome Stability-% Left … (%) Human” value in series [2] amounted to 0.2%. The IC50 in series [3] (Dox inducible, 293FRT/TO cells) was found to be 1090 nM; in series [4] (Dox inducible, 293FRT/TO cells) it was 829 nM; in series [5] (Dox inducible, 293FRT/TO cells) it was 11500 nM. Moreover, the “Liver Microsome Stability-% Left … (%) Monkey” value in series [6] is recorded as 8.67%. The EC50 in series [7] (U266, Celltiter-Glo) is above 25000 nM; in series [9] (H929, Celltiter-Glo) it was above 25000 nM. Besides, the “Liver Microsome Stability-% Left … (%) Rat” value in [8] (setting [11]) is 0.37%.
